Data taken from patent US20250177324A1, “A[…], AND PREPARATION METHOD THEREFOR AND USE THEREOF” (SHANGHAI ZHIGEN PHARMACEUTICAL & TECHNOLOGY CO. LTD., priority 2022, published 2025).
Where two headings read alike, the source gives them in different places.

Key:
C57 mice [1] = experiment: Forced swim test of oral administration in mice (antidepressant activity); format: in vivo; conditions: Mus musculus, po, reduction of immobility time vs blank group, single gavage 20 mg/kg
Method: To investigate the effects of different compounds on depression-like behavior in C57 mice by single oral administration of 20 mg/kg for 1 h and 24 h followed by forced swimming experiment, respectively.
The experimental animals were 6-week-old C57 mice, male, C57 breed mice purchased from Shanghai Slaughter Laboratory Animal Co. Ltd, weighing 20.45±0.19 g. The animals arrived at the Animal Breeding Center of the Shanghai Institute of Pharmaceutical Sciences, Chinese Academy of Sciences (Animal Production License: SCXK9[Shanghai]2004-0002, Use License: SYXK [Shanghai]2003-0029) before the experiments and were acclimated to the animal facilities for more than 3 days, 6 animals/cage were feed. The feeding environment was room temperature 23±0.2° C. and 12/12 h day/night alternating light and dark. Prior to behavioral testing, animals were moved to the behavioral testing room 2 hours in advance to acclimatize them to the environment and reduce their nervousness.
Preparation of the test material: the test compounds were weighed and dissolved in 0.9% NaCl solution, mixed well, and prepared into 1 mg/ml and 2 mg/ml solution for use, respectively.
24 h prior to drug administration, mice were placed in a cylindrical tank to acclimatize to the water environment for 10 min. On the day of the behavioral test, the animals were administered the drug once, by gavage/intraperitoneal injection at 1 h and 24 h prior to the behavioral test, respectively (as shown in Table 1).
The antidepressant effect of the compounds was evaluated by their ability to cause a reduction in the immobility time of the animals in the forced swim test compared to the blank group.

[2] = Brain tissue distribution study in rats; format: in vivo; conditions: SD rats, 10 mg/kg gavage
Method: Healthy male SD rats, randomly grouped with 3 rats in each group, were given the test compounds by gavage.
(§1) Each test compound was dissolved in saline to form a certain concentration solution for administration.
Fasting but not abstaining from water for 12-14 hours on the day before administration, and food was given 4 h after administration.
Brain tissues were collected after the animals were bled, cleaned, and homogenized with 50% ice methanol 1:4 (m/v). The collection time points were 5 min, 10 min, 30 min, and 2 h after the administration of subjects; 30.0 μL of tissue samples were taken (the samples were taken from the refrigerator at −80° C. and vortexed for 30 s after natural dissolution at room temperature) into 1.5 mL centrifugal tubes, and 300.0 μL of the internal standard solution (30 ng/mL buspirone in acetonitrile) was added; the samples were vortexed for 60 s, and centrifuged for 3 min (the centrifugal force was 12,000 rpm). 75 μL of the supernatant was transferred to a 96-well plate containing an equal volume of water, shaken to mix well and then sampled for LC-MS/MS analysis, the sample volume is 10 μL.

[3] = In vivo pharmacokinetic experiments in beagle dogs; conditions: beagle dog
Method: Healthy male beagle dogs, randomly grouped with 3 dogs in each group, were given the test compound by gavage or intravenous injection.
as §1
Fasting but not abstaining from water for 12-14 hours on the day before administration, and food was given 4 h after administration; no fasting was done for the intravenous experiments.
Each animal was sampled with 0.6 mL of blood each time through the jugular vein and anticoagulated with EDTAK2. The collection time points were 5 min, 10 min, 15 min, 30 min, 1 h, 2 h, 4 h, 6 h, 8 h, and 24 h after administration of the subject in group PO; group IV: 2 min, 5 min, 15 min, 30 min, 1 h, 2 h, 4 h, 6 h, 24 h after administration of the subject. Blood samples were placed on ice after collection and centrifuged to separate plasma within 30 min (centrifugation conditions: 5000 rpm, 10 min, 4° C.). The samples were stored at −80° C. before analysis.

[4] = Solid-state chemical stability under different storage conditions (liquid chromatography); format: physicochemical; conditions: 40° C., 75% RH
Method: The HPLC conditions were as follows:
Configuration of test solution: appropriate amount of sample was dissolved and diluted with a diluent (0.03 mol/L phosphate buffer-acetonitrile (80:20)) to make 1 mg/mL solution.
Chromatographic conditions: according to the high performance liquid chromatography (Chinese Pharmacopoeia 2020 version of the four general 0512) test, using octadecyl-bonded silica gel (Agilent Eclipse Plus C18, 4.6 mm*250 mm, 5.0 μm, P/N for 959990-902 or a chromatographic column with equivalent performance) as a filler; 0.03 mol/L phosphate buffer (4.08 g of potassium dihydrogen phosphate was dissolved in 1000 ml of water and shaken well) was used as mobile phase A and acetonitrile as mobile phase B at a flow rate of 1 ml/min, the column temperature was 30° C., the detection wavelength was 220 nm, the injection volume was 10 ul, and the sample plate was controlled to 8° C. and running for 65 min. Gradient elution was performed according to the following table: […]
Configuration of test solution: appropriate amount of the product was dissolved and diluted with a diluent (0.1% phosphoric acid-acetonitrile (80:20)) to make 1 mg/mL solution.
Chromatographic conditions: according to the high performance liquid chromatography (Chinese Pharmacopoeia 2020 version of the four general 0512) test, using octadecyl bonded silica gel (Agilent Eclipse Plus C18, 4.6 mm*250 mm, 5.0 μm, P/N 959990-902 or a chromatographic column with equivalent performance) as a filler; 0.1% phosphate buffer (1 ml of phosphoric acid in 1000 ml of water and shake well) as mobile phase A, acetonitrile as mobile phase B, flow rate of 1 ml/min, column temperature of 30° C., detection wavelength of 220 nm, injection volume of 10 ul, running for 48 minutes. Gradient elution was performed according to the following table: […]

C57 mice [5] = experiment: Forced swim test of oral administration in mice (antidepressant activity); format: in vivo; conditions: Mus musculus, reduction of immobility time vs blank group, abdominal injection 10 mg/kg
[6] = test 1 h after dosing, read-out: 1 h inhibition (%)
[7] = test 24 h after dosing, read-out: 24 h inhibition (%)

CN[C@@]1(c2ccc(C(F)(F)F)cc2)CCC[C@](C)(O)C1=O.Cl [Compound 73, (2S,6R)-2-hydroxy-2-methyl-6-methylamino-6-(4-(trifluoromethyl)phenyl)cyclohexan-1-one hydrochloride]
inhibition in vivo at 20 mg/kg (C57 mice [1]; [6]): 68.7 ± 0.6%
inhibition in vivo at 20 mg/kg (C57 mice [1]; [7]): 39.4 ± 4.4%
AUC0-t brain ([2]; brain): 6172 ng·h/g
Cmax brain ([2]; brain): 5567 ng/g
Kp ([2]; male, rat, brain and plasma, po, read-out: brain/plasma ratio): 3.4
AUC0-t ([2]; male, rat, po, plasma): 1.82 µg·h/mL
Cmax ([2]; male, rat, po, plasma): 1.6 µg/mL
AUC0-t ([3]; 1 mg/kg i.v.): 941 ngh/mL
AUC0-∞ ([3]; 1 mg/kg i.v.): 970 ngh/mL
AUC0-t ([3]; 5 mg/kg P.O.): 2179 ngh/mL
AUC0-∞ ([3]; 5 mg/kg P.O.): 2224 ngh/mL
F ([3]; 5 mg/kg P.O.): 46.3%
MRT ([3]; male, plasma, iv, 1 mg/kg i.v.): 1.84 h
clearance ([3]; male, plasma, iv, 1 mg/kg i.v.): 1.06 L/h/kg
half-life ([3]; male, plasma, iv, 1 mg/kg i.v.): 1.61 h
Vd ([3]; male, plasma, iv, 1 mg/kg i.v., read-out: Vss): 1.93 L/kg
Cmax ([3]; male, plasma, po, 5 mg/kg P.O.): 1.02 µg/mL
MRT ([3]; male, plasma, po, 5 mg/kg P.O.): 2.57 h
Tmax ([3]; male, plasma, po, 5 mg/kg P.O.): 0.42 h
half-life ([3]; male, plasma, po, 5 mg/kg P.O.): 2.33 h
Stability of solid state compound, 0 Days (%) ([4]; 0 days, liquid chromatography): 99.94%
Stability of solid state compound, 5 Days (%) ([4]; 5 days): 99.90%
Stability of solid state compound, 10 Days (%) ([4]; 10 days): 99.88%
Stability of solid state compound, 30 Days (%) ([4]; 30 days): 99.89%

CN[C@]1(c2ccccc2Cl)CCCCC1=O [S-ketamine]
inhibition in vivo at 10 mg/kg (C57 mice [5]; [6]): 20.7 ± 3.7%
inhibition in vivo at 10 mg/kg (C57 mice [5]; [7]): 23.6 ± 1%
